IC50, Cmax and AUC data for twelve molecules are collected here from ChEMBL document CHEMBL1133397, “Fused bicyclic Gly-Asp beta-turn mimics with potent affinity for GPIIb-IIIa. Exploration of the arginine isostere” (Bioorg Med Chem Lett, 2000).

pIC50: −log10 of the molar value.

Series [1] concerns the target Integrin alpha-IIb/beta-3 (Homo sapiens, UniProt P05106+P08514). The series is described as follows: Inhibition of fibrinogen binding to purified human GPIIb-IIIa in ELISA. The class given is protein-complex assay.
Series [2] is filed under the species Homo sapiens. The series is described as follows: The compound was evaluated for reduction of ADP-induced human platelet aggregation response by 50% using PRP assay. The class given is functional, organism-based.
The nature of series [3]: Blood level after a 10 mg/kg oral dose in rat expressed as Cmax was determined. Also noted: dose 10 mg/kg, route oral. The class given is ADME, organism-based.
Series [4] can be described thus: Blood level after a 10 mg/kg oral dose in rat expressed as AUC was determined. The class given is ADME, organism-based. Also on record: dose 10 mg/kg, route oral.

One may read the pIC50 as −log10 of the IC50, conventionally taken in molar units. A word on the Cmax: it is the peak of the concentration-time curve. As a reminder, the AUC is concentration integrated over time. The low end stands for less exposure, the high end for more exposure.

Integrin alpha-IIb/beta-3, sequence (P05106 27-788 limits assumed): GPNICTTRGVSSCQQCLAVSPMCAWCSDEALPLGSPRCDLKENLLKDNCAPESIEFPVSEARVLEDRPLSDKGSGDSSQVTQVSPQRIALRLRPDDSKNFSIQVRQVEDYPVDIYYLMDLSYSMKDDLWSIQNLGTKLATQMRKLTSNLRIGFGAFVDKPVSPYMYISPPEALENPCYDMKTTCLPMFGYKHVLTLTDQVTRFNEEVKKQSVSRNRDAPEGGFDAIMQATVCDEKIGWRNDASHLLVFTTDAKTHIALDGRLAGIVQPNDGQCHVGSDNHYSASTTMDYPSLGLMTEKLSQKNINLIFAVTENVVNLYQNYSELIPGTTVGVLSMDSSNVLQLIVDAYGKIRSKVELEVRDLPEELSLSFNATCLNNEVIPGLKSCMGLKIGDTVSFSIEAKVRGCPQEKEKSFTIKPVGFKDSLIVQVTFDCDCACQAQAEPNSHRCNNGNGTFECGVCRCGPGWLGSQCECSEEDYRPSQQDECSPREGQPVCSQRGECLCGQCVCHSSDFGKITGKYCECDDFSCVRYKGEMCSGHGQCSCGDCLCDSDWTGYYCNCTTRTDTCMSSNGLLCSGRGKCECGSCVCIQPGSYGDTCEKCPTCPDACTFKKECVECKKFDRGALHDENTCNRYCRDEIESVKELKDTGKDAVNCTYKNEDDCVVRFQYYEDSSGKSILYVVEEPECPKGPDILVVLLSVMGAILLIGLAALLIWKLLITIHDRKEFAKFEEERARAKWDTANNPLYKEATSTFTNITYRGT
Integrin alpha-IIb/beta-3, sequence (P08514 32-887 limits assumed): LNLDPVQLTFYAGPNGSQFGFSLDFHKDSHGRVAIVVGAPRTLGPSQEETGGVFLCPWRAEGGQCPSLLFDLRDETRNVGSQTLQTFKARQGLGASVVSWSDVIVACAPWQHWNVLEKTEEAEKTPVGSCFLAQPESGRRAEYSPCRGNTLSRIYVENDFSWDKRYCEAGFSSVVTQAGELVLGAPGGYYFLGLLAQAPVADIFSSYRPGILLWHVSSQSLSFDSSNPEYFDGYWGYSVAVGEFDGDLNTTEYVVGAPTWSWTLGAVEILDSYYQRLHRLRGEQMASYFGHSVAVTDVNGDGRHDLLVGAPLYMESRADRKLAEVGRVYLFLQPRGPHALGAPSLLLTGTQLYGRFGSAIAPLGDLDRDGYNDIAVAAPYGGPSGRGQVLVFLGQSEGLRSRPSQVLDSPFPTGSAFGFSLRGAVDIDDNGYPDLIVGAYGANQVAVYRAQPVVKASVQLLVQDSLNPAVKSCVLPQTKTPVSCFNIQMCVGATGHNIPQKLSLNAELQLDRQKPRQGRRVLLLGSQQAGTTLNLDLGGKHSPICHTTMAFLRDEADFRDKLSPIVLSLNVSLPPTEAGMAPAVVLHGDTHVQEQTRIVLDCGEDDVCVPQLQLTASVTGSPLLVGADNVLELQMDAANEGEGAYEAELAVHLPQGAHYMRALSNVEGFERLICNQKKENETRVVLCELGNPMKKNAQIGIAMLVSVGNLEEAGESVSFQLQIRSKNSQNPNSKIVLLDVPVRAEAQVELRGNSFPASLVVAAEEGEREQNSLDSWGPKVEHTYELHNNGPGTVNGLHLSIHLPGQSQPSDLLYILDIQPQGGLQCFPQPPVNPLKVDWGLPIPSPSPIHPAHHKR
Integrin alpha-IIb/beta-3, sequence (P08514 891-1039 limits assumed): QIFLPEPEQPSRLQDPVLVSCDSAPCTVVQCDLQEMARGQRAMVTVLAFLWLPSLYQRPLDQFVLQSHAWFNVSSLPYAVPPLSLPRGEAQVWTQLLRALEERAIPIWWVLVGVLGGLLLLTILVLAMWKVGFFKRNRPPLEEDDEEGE

Regarding `O=C(O)CC1CCc2cc(NCCCC3CCNCC3)ccc2C1=O` (configuration not stated), the results for the pIC50 in series [1] and in series [2] were 6.21 and 5.26, respectively.

Turning to `O=C(O)CC1CCc2cc(NC(=O)CCC3CCNCC3)ccc2C1=O` (configuration not stated), the pIC50 in series [1] is 7.15; in series [2], 6.04.

As for `O=C(O)CC1CCc2cc(NC(=O)OCC3CCNCC3)ccc2C1=O` (configuration not stated), the pIC50 in series [1] was 6.48; in series [2], 5.74.

In series [3], `N=C(N)c1ccc(C(=O)Nc2ccc3c(c2)CCC(CC(=O)O)C3=O)cc1` (configuration not stated) yielded a peak concentration (Cmax) of 3630 ng/mL. For the same molecule, in series [4], the AUC is 11200 ng·h/mL.

Molecule `N=C(N)c1cc(F)c(C(=O)Nc2ccc3c(c2)CCC(CC(=O)O)C3=O)c(F)c1` (configuration not stated) had a Cmax in series [3] of 2020 ng/mL. Moreover, in series [4], the AUC was found to be 6410 ng·h/mL. In addition, the negative logarithm of the IC50 (pIC50) is 8.30 in series [1] and 6.62 in series [2].

`N=C(N)c1ccc(C(=O)Nc2ccc3c(c2)CCC(CC(=O)O)C3=O)c(C(F)(F)F)c1` (configuration not stated): the results for the pIC50 in series [1] and in series [2] were 7.14 and 5.70, respectively.

With `N=C(N)c1ccc(C(=O)Nc2ccc3c(c2)CCC(CC(=O)O)C3=O)s1` (configuration not stated), the results for the pIC50 in series [1] and in series [2] were 6.68 and 5.05, respectively.

As to `O=C(O)CC1CCc2cc(NC(=O)/C=C/C3CCNCC3)ccc2C1=O` (configuration not stated), the concentration in series [3] peaked (Cmax) at 2700 ng/mL. The same molecule came in with an AUC in series [4] of 8140 ng·h/mL. Further, the negative logarithm of the IC50 (pIC50) in series [1] is 7.59; in series [2], 6.44.

Regarding `N=C(N)c1ccc(C(=O)Nc2ccc3c(c2)CCC(CC(=O)O)C3=O)c(F)c1` (configuration not stated), the Cmax in series [3] was 4020 ng/mL. In series [4], this molecule gave an exposure (AUC) of 11900 ng·h/mL. Moreover, the pIC50 in series [1] is 8.52; in series [2] it was 7.00.

In series [3], `N=C(N)c1ccc(C(=O)Nc2ccc3c(c2)CCC(CC(=O)O)C3=O)cn1` (configuration not stated) returned a Cmax of 1170 ng/mL. In series [4], this molecule returned an AUC of 3560 ng·h/mL. Also, the pIC50 in series [1] is 8.05; in series [2], 6.66.

Regarding `N=C(N)c1ccc(C(=O)Nc2ccc3c(c2)CCC(CC(=O)O)C3=O)c(Cl)c1` (configuration not stated), in series [3], the concentration peaked (Cmax) at 3110 ng/mL. In series [4], this molecule gave an AUC of 10400 ng·h/mL. In series [2], this molecule had a pIC50 of 6.40.

In turn, `O=C(O)CC1CCc2cc(NC(=O)COC3CCNCC3)ccc2C1=O` (configuration not stated) had a pIC50 in series [2] of 4.74.
